Data taken from US20160169850A1, “SENSOR MOLECULE” (University of Malta, priority 2014, published 2016).
Like-named read-outs stand apart in the source and are kept apart here.

Key:
[1] = CH3CN; known sensor; cited from earlier work
[2] = CH3CN; known sensor; cited from earlier work; remark: listed apart in the source
[3] = 1:1 methanol:water, excess H^+ (pH 3), emission at 525 nm
[4] = for Fluorescent Output: 1:1 MeOH:H2O

Row | Compound | Fluorescent Enhancement (FE) [1] | Quantum Yield (ΦF) [2] | −log [Fe^3+] at equivalence point [3] | Output emission, logic level (Condition A: H^+ low, Fe^3+ low) | Output emission, logic level (Condition B: 0.2 mM H^+, Fe^3+ low) | Output emission, logic level (Condition C: H^+ low, 10 μM Fe(III)) | Output emission, logic level (Condition D: 0.2 mM H^+ and 10 μM Fe(III)) | visual output under UV lamp ([4]; 365 nm light, high acid and Fe(III), 1:1 methanol/water) | Fluorescent Output ([4]; Condition A: no inputs) | Fluorescent Output ([4]; Condition D: Fe(III) and H^+ both) | fluorescence enhancement ([4]; both inputs versus no input or one input, 1:1 methanol:water)
1 | CN(CC1=CSC(=C2SC=CS2)S1)Cc1c2ccccc2cc2ccccc12 [Compound 2] | 5 | 0.015 | – | – | – | – | – | – | – | – | –
2 | N-ferrocenyl-4-methylpiperazine-1,8-naphthalimide [Compound 5] | – | – | 5.1 | low (Output is considered high when >0.050) | low (Output is considered high when >0.050) | low (Output is considered high when >0.050) | high (Output is considered high when >0.050) | bright green fluorescent | Low | High | 19 fold
